Assay results published in paper PMC4690453 (Bioorganic & medicinal chemistry letters, 2015).

Tested on: NO production in BV2 microglial cell cultures treated with lipopolysachharide (LPS)
Assay: Inhibition of NO production in LPS-treated BV2 microglial cell cultures
Type: cell-based
Conditions: BV2 cells

Row | SMILES | anti-inflammatory potency compared to DFB (in words)
1 | COc1cc(Br)ccc1NC(=O)[C@H]1C[C@@H]1c1cccc(Cl)c1 (racemic) [Compound 2d, N-(4-Bromo-2-methoxyphenyl)-2-(3-chlorophenyl)cyclopropane-1-carboxamide] | decreased potency
2 | O=C(Nc1nc2ccccc2[nH]1)[C@H]1C[C@@H]1c1cccc(F)c1 (racemic) [Compound 1f, N-(1H-benzo[d]imidazol-2-yl)-2-(3-fluorophenyl)cyclopropane-1-carboxamide] | superior potency to DFB
3 | O=C(Nc1ccccc1Cl)[C@H]1C[C@@H]1c1cccc(F)c1 (racemic) [Compound 1c] | decreased anti-inflammatory potency
4 | O=C(Nc1ccc(F)cc1)[C@H]1C[C@@H]1c1cccc(F)c1 (racemic) [Compound 1b] | decreased anti-inflammatory potency
5 | O=C(Nc1ccccc1F)[C@H]1C[C@@H]1c1cccc(F)c1 (racemic) [Compound 1a, N-(2-fluorophenyl)-2-(3-fluorophenyl) cyclopropane-1-carboxamide] | decreased anti-inflammatory potency
6 | O=C(Nc1nc2ccccc2s1)[C@H]1C[C@@H]1c1cccc(F)c1 (racemic) [Compound 1e, N-(Benzo[d]thiazol-2-yl)-2-(3-fluorophenyl)cyclopropane-1-carboxamide] | superior potency to DFB
7 | O=C(Nc1nc2ccccc2[nH]1)[C@H]1C[C@@H]1c1cccc(Cl)c1 (racemic) [Compound 2f] | improved potency

Tested on: BV2 microglial cells
Assay: Cell viability assay
Type: cell-based
Conditions: not given

Row | SMILES | BV2 cell toxicity / viability (in words)
8 | COc1cc(Br)ccc1NC(=O)[C@H]1C[C@@H]1c1cccc(F)c1 (racemic) [Compound 1d, N-(4-Bromo-2-methoxyphenyl)-2-(3-fluorophenyl)cyclopropane-1-carboxamide] | excellent BV2 microglial cell viability
9 | O=C(N[C@H]1C[C@@H]1c1cccc(F)c1)c1ccc([N+](=O)[O-])cc1 (racemic) [Compound 3d] | significant BV2 cell toxicity
10 | O=C(N[C@H]1C[C@@H]1c1cccc(F)c1)c1cccc([N+](=O)[O-])c1 (racemic) [Compound 3c] | significant BV2 cell toxicity
11 | O=C(N[C@H]1C[C@@H]1c1cccc(F)c1)c1cccc(F)c1 (racemic) [Compound 3a, 3-fluoro-N-(2-(3-fluorophenyl)cyclopropyl)benzamide] | excellent cell viability
